What was measured:
BRD2 BD2 WT = BRD2 BD2 WT (Homo sapiens, UniProt P25440); test: ITC; type: binding
BRD3 BD1 WT [1] = molecular target: T1, BRD3 BD1 WT (Homo sapiens, UniProt Q15059); test: ITC; type: binding
BRD3 BD1 WT [2] = molecular target: T1, BRD3 BD1 WT; test: competitive AlphaLISA; type: binding
BRD4 BD1 L/V [3] = molecular target: T2, BRD4 BD1 L/V (Homo sapiens, UniProt O60885, L94V); test: competitive AlphaLISA; type: binding
BRD4 BD2 L/V = BRD4 BD2 L/V (Homo sapiens, UniProt O60885, L387V); test: ITC; type: binding
BRD4 BD1 WT [4] = molecular target: T3, BRD4 BD1 WT (Homo sapiens, UniProt O60885); test: competitive AlphaLISA; type: binding
BRD4 BD1 WT [5] = molecular target: T3, BRD4 BD1 WT; test: ITC; type: binding
BRD2 BD1 L/V = BRD2 BD1 L/V (Homo sapiens, UniProt P25440, L110V); test: ITC; type: binding
Sequence of BRD2 BD1 L/V (P25440 71-176 L110V limits assumed): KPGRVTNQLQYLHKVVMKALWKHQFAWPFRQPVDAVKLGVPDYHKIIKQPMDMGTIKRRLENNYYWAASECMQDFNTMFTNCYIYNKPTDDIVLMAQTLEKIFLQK

BRD3 BD2 L/V = BRD3 BD2 L/V (Homo sapiens, UniProt Q15059, L345V); test: ITC; type: binding
Sequence of BRD3 BD2 L/V (Q15059 306-416 L345V limits assumed): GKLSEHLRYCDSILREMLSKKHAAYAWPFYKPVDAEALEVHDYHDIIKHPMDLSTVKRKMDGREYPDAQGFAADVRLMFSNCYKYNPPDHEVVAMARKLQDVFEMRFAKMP

[6] = tested on: L/V somatic BET bromodomains; test: ITC
BRD4 BD1 L/V [7] = molecular target: T2, BRD4 BD1 L/V; test: ITC; type: binding; conditions: for Kd: Kd BRD4 BD1 L/V
BRD3 BD2 WT = BRD3 BD2 WT (Homo sapiens, UniProt Q15059); test: ITC; type: binding
Sequence of BRD3 BD2 WT (Q15059 306-416): as the sequence (Q15059 306-416 L345V limits assumed) above, with V40L counted along it

BRD3 BD1 L/V = BRD3 BD1 L/V (Homo sapiens, UniProt Q15059, L70V); test: ITC; type: binding
Sequence of BRD3 BD1 L/V (Q15059 24-144 L70V limits assumed): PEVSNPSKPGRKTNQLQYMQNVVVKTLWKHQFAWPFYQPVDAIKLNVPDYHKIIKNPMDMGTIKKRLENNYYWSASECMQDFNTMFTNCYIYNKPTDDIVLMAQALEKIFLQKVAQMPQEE

BRD4 BD2 WT = BRD4 BD2 WT (Homo sapiens, UniProt O60885); test: ITC; type: binding
BRD2 BD1 WT = BRD2 BD1 WT (Homo sapiens, UniProt P25440); test: ITC; type: binding
Sequence of BRD2 BD1 WT (P25440 71-176): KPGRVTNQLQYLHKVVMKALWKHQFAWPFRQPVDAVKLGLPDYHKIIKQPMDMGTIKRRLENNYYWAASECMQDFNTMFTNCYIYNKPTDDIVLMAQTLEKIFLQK

BRDT BD2 WT = BRDT BD2 WT (Homo sapiens, UniProt Q58F21); test: competitive AlphaLISA; type: binding
BRD2 BD2 L/V = BRD2 BD2 L/V (Homo sapiens, UniProt P25440, L383V); test: ITC; type: binding
Sequence of BRD2 BD2 L/V (P25440 344-455 L383V): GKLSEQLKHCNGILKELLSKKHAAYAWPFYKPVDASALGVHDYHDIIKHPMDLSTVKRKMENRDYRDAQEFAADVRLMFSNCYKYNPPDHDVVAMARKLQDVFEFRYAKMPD

T1 sequence (Q15059 24-144): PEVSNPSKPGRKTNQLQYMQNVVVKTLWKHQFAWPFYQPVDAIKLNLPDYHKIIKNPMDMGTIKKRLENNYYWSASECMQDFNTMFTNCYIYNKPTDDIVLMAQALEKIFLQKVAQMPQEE
Sequence of BRD2 BD2 WT (P25440 344-455): as the sequence (P25440 344-455 L383V) above, with V40L counted along it

Structure (SMILES): CC[C@@H](C(=O)OC)[C@@H]1N=C(c2ccc(Cl)cc2)c2ccc(OC)cc2-n2c(C)nnc21 (racemic) [Compound 8]
- Kd (BRD2 BD2 WT): > 60000 nM
- Kd (BRD3 BD1 WT [1]): 29000 nM
- IC50 (BRD3 BD1 WT [2]): 2510 nM
- IC50 (BRD4 BD1 L/V [3]; AlphaLISA pIC50 Value BRD4 BD1 L/V): 126 nM
- ΔpIC50 BRD4 BD1 (BRD4 BD1 L/V [3]; L/V minus WT, total compound concentration): 1.4
- IC50 (BRD4 BD1 L/V [3]; pIC50 BRD4 BD1 L/V, separated enantiomers test, total compound concentration): 2000 nM
- Kd (BRD4 BD2 L/V): 740 nM
- selectivity plot WT 2.1 vs L/V 4.2 (BRD4 BD2 L/V; Kd BRD2 BD1 WT / Kd BRD4 BD2 L/V): > 80
- selectivity plot WT 2.2 vs L/V 4.2 (BRD4 BD2 L/V; Kd BRD2 BD2 WT / Kd BRD4 BD2 L/V): > 80
- selectivity plot WT 3.1 vs L/V 4.2 (BRD4 BD2 L/V; Kd BRD3 BD1 WT / Kd BRD4 BD2 L/V): 40
- selectivity plot WT 3.2 vs L/V 4.2 (BRD4 BD2 L/V; Kd BRD3 BD2 WT / Kd BRD4 BD2 L/V): > 80
- selectivity plot WT 4.1 vs L/V 4.2 (BRD4 BD2 L/V; Kd BRD4 BD1 WT / Kd BRD4 BD2 L/V): > 80
- selectivity plot WT 4.2 vs L/V 4.2 (BRD4 BD2 L/V; Kd BRD4 BD2 WT / Kd BRD4 BD2 L/V): > 80
- IC50 (BRD4 BD1 WT [4]; AlphaLISA pIC50 Value BRD4 BD1 WT): 1580 nM
- IC50 (BRD4 BD1 WT [4]; pIC50 BRD4 BD1 WT, separated enantiomers test, total compound concentration): 50100 nM
- Kd (BRD4 BD1 WT [5]): > 60000 nM
- Kd (BRD2 BD1 L/V): 340 nM
- selectivity plot WT 2.1 vs L/V 2.1 (BRD2 BD1 L/V; Kd BRD2 BD1 WT / Kd BRD2 BD1 L/V): > 180
- selectivity plot WT 2.2 vs L/V 2.1 (BRD2 BD1 L/V; Kd BRD2 BD2 WT / Kd BRD2 BD1 L/V): > 180
- selectivity plot WT 3.1 vs L/V 2.1 (BRD2 BD1 L/V; Kd BRD3 BD1 WT / Kd BRD2 BD1 L/V): 90
- selectivity plot WT 3.2 vs L/V 2.1 (BRD2 BD1 L/V; Kd BRD3 BD2 WT / Kd BRD2 BD1 L/V): > 180
- selectivity plot WT 4.1 vs L/V 2.1 (BRD2 BD1 L/V; Kd BRD4 BD1 WT / Kd BRD2 BD1 L/V): > 180
- selectivity plot WT 4.2 vs L/V 2.1 (BRD2 BD1 L/V; Kd BRD4 BD2 WT / Kd BRD2 BD1 L/V): > 180
- Kd (BRD3 BD2 L/V): 410 nM
- selectivity plot WT 2.1 vs L/V 3.2 (BRD3 BD2 L/V; Kd BRD2 BD1 WT / Kd BRD3 BD2 L/V): > 150
- selectivity plot WT 2.2 vs L/V 3.2 (BRD3 BD2 L/V; Kd BRD2 BD2 WT / Kd BRD3 BD2 L/V): > 150
- selectivity plot WT 3.1 vs L/V 3.2 (BRD3 BD2 L/V; Kd BRD3 BD1 WT / Kd BRD3 BD2 L/V): 70
- selectivity plot WT 3.2 vs L/V 3.2 (BRD3 BD2 L/V; Kd BRD3 BD2 WT / Kd BRD3 BD2 L/V): > 150
- selectivity plot WT 4.1 vs L/V 3.2 (BRD3 BD2 L/V; Kd BRD4 BD1 WT / Kd BRD3 BD2 L/V): > 150
- selectivity plot WT 4.2 vs L/V 3.2 (BRD3 BD2 L/V; Kd BRD4 BD2 WT / Kd BRD3 BD2 L/V): > 150
- ITC pKd ± SD Δ ([6]; L/V minus WT): >2.2 ± 0.2
- selectivity for the L/V mutant over wild-type ([6]; across the BET subfamily, ITC): > 100 fold
- ITC pKd ± SD L/V ([6]; mean and SD of all somatic bromodomains): 6.4 ± 0.2
- N BRD4 BD1 L/V (BRD4 BD1 L/V [7]; ITC stoichiometry, total compound concentration): 1.42 ±0.02
- ΔH BRD4 BD1 L/V (BRD4 BD1 L/V [7]; ITC, total compound concentration): -3.5 ± 0.1 kcal/mol
- selectivity plot WT 2.1 vs L/V 4.1 (BRD4 BD1 L/V [7]; Kd BRD2 BD1 WT / Kd BRD4 BD1 L/V): > 110
- selectivity plot WT 2.2 vs L/V 4.1 (BRD4 BD1 L/V [7]; Kd BRD2 BD2 WT / Kd BRD4 BD1 L/V): > 100
- selectivity plot WT 3.1 vs L/V 4.1 (BRD4 BD1 L/V [7]; Kd BRD3 BD1 WT / Kd BRD4 BD1 L/V): 60
- selectivity plot WT 3.2 vs L/V 4.1 (BRD4 BD1 L/V [7]; Kd BRD3 BD2 WT / Kd BRD4 BD1 L/V): > 110
- Kd (BRD4 BD1 L/V [7]; ITC of separated enantiomers and racemates, total compound concentration): 840 ± 170 nM
- Kd (BRD4 BD1 L/V [7]; ITC, 30°C): 530 nM
- selectivity plot WT 4.1 vs L/V 4.1 (BRD4 BD1 L/V [7]; Kd BRD4 BD1 WT / Kd BRD4 BD1 L/V): > 100
- selectivity plot WT 4.2 vs L/V 4.1 (BRD4 BD1 L/V [7]; Kd BRD4 BD2 WT / Kd BRD4 BD1 L/V): > 100
- Kd (BRD3 BD2 WT): > 60000 nM
- Kd (BRD3 BD1 L/V): 270 nM
- selectivity plot WT 2.1 vs L/V 3.1 (BRD3 BD1 L/V; Kd BRD2 BD1 WT / Kd BRD3 BD1 L/V): > 230
- selectivity plot WT 2.2 vs L/V 3.1 (BRD3 BD1 L/V; Kd BRD2 BD2 WT / Kd BRD3 BD1 L/V): > 230
- selectivity plot WT 3.1 vs L/V 3.1 (BRD3 BD1 L/V; Kd BRD3 BD1 WT / Kd BRD3 BD1 L/V): 110
- selectivity plot WT 3.2 vs L/V 3.1 (BRD3 BD1 L/V; Kd BRD3 BD2 WT / Kd BRD3 BD1 L/V): > 230
- selectivity plot WT 4.1 vs L/V 3.1 (BRD3 BD1 L/V; Kd BRD4 BD1 WT / Kd BRD3 BD1 L/V): > 230
- selectivity plot WT 4.2 vs L/V 3.1 (BRD3 BD1 L/V; Kd BRD4 BD2 WT / Kd BRD3 BD1 L/V): > 230
- Kd (BRD4 BD2 WT): > 60000 nM
- Kd (BRD2 BD1 WT): > 60000 nM
- IC50 (BRDT BD2 WT): 3980 nM
- Kd (BRD2 BD2 L/V): 300 nM
- selectivity plot WT 2.1 vs L/V 2.2 (BRD2 BD2 L/V; Kd BRD2 BD1 WT / Kd BRD2 BD2 L/V): > 200
- selectivity plot WT 2.2 vs L/V 2.2 (BRD2 BD2 L/V; Kd BRD2 BD2 WT / Kd BRD2 BD2 L/V): > 200
- selectivity plot WT 3.1 vs L/V 2.2 (BRD2 BD2 L/V; Kd BRD3 BD1 WT / Kd BRD2 BD2 L/V): 100
- selectivity plot WT 3.2 vs L/V 2.2 (BRD2 BD2 L/V; Kd BRD3 BD2 WT / Kd BRD2 BD2 L/V): > 200
- selectivity plot WT 4.1 vs L/V 2.2 (BRD2 BD2 L/V; Kd BRD4 BD1 WT / Kd BRD2 BD2 L/V): > 200
- selectivity plot WT 4.2 vs L/V 2.2 (BRD2 BD2 L/V; Kd BRD4 BD2 WT / Kd BRD2 BD2 L/V): > 200

From paper PMC5909127, “Optimization of a “bump-and-hole” approach to allele-selective BET bromodomain inhibition” (Chemical Science, 2018)
